Assay results published in patent US12083105B2, “Compositions and methods for treating adult-onset neuronal ceroid lipofuscinosis (Kufs disease)” (CORNELL UNIVERSITY, priority 2020, dated 2024).

Assays:
[1] = test system: SNAP-25; assay: Total SNAP-25 levels in ANCL iNs (quantitative immunoblotting); format: cell-based, human; settings: 72 h, compared to vehicle only control, FIG. 7B
Method: ANCL patient-derived fibroblasts were treated with 200 μM of L1 or Dfx, or vehicle (0.1% DMSO=Control) for 72 h, before measuring the UV-Vis absorbance spectra of immunoprecipitated CSPα eluted by trypsinization (solid lines). Spectra were re-read after 10 min of 0.1 N HCl treatment (dashed lines). The experiments shown in FIGS. 7B-7I, were conducted using ANCL fibroblasts converted to iNs using BAM+ND1 technique. […] Quantitative immunoblotting was used to measure levels of oligomerized and fully palmitoylated CSPα as well as total SNAP-25. Oligo=oligomers; Palm=palmitoylated. […] The interaction of CSPα with SNAP-25 in ANCL iNs was measured by immunoprecipitating SNAP-25 followed by quantitative immunoblotting of co-immunoprecipitated CSPα (normalized to SNAP-25 IP). Note that mainly CSPα monomers and not oligomers were detected bound to SNAP-25. Control=control sham IP without IgG. […] Turnover of SNAP-25 was determined by cycloheximide chase, while maintaining the iron-chelators or vehicle in the medium. […] In the experiments shown in FIGS. 7E-7G, ANCL iNs treated with L1, Dfx, or vehicle for 56 d and analyzed. […] The levels of lipofuscin were determined by ELISA. In the experiments shown in FIGS. 7H-7I 56 day old untreated ANCL iNs were treated with L1, Dfx, or vehicle, and analyzed. […]

[2] = test system: ANCL iNs; assay: Lipofuscin ELISA in ANCL iNs; format: cell-based, human; settings: compared to control; for lipofuscin ELISA signal: ANCL iNs treated for 56 d (prevention), FIG. 7G; for levels of lipofuscin (ELISA): added to ANCL iNs after 56 days of lipofuscin accumulation, 0, 7, 14, 21 d of treatment, FIG. 7I
Method: ANCL patient-derived fibroblasts were treated with 200 μM of L1 or Dfx, or vehicle (0.1% DMSO=Control) for 72 h, before measuring the UV-Vis absorbance spectra of immunoprecipitated CSPα eluted by trypsinization (solid lines). Spectra were re-read after 10 min of 0.1 N HCl treatment (dashed lines). The experiments shown in FIGS. 7B-7I, were conducted using ANCL fibroblasts converted to iNs using BAM+ND1 technique. […] Quantitative immunoblotting was used to measure levels of oligomerized and fully palmitoylated CSPα as well as total SNAP-25. Oligo=oligomers; Palm=palmitoylated. […] The interaction of CSPα with SNAP-25 in ANCL iNs was measured by immunoprecipitating SNAP-25 followed by quantitative immunoblotting of co-immunoprecipitated CSPα (normalized to SNAP-25 IP). Note that mainly CSPα monomers and not oligomers were detected bound to SNAP-25. Control=control sham IP without IgG. […] Turnover of SNAP-25 was determined by cycloheximide chase, while maintaining the iron-chelators or vehicle in the medium. […] In the experiments shown in FIGS. 7E-7G, ANCL iNs treated with L1, Dfx, or vehicle for 56 d and analyzed. […] The levels of lipofuscin were determined by ELISA. In the experiments shown in FIGS. 7H-7I 56 day old untreated ANCL iNs were treated with L1, Dfx, or vehicle, and analyzed. […] Data are from FIG. 7A representative of n=4, FIG. 7B n=4, FIG. 7C n=4, FIG. 7D n=7, FIG. 7F n=4, FIG. 7G n=4, FIG. 7H n=6, FIG. 7I n=3. In FIGS. 7B-7C and FIGS. 7F-7G *P<0.05; **P<0.01; ****P<0.0001 by two-tailed Student's t-test. #P<0.05 by Mann-Whitney-Wilcoxon U test. In FIG. 7D-7C and FIGS. 7H-7I **P<0.01; ***P<0.001; ****P<0.0001 by two-way ANOVA; ##P<0.01; ###P<0.001; ####P<0.0001 by Tukey's multiple comparisons test.
iNs from each well of a 6 well dish were solubilized in 100 μl PBS with 0.1% Triton X-100 for 1 h at 4° C. Post nuclear supernatant collected by centrifugation at 1000 gav for 15 min was used for the assay. These samples were analyzed for lipofuscin content using human lipofuscin competitive ELISA (MyBiosource; MBS7217173). Following the colorimetric reaction, optical density at 450 nm was read from the standard and the sample wells using Synergy H1 Hybrid Reader (BioTek).
Effect of iron chelators on the accumulation of lipofuscin was monitored by ELISA for lipofuscin or based on lipofuscin autofluorescence. […] Effect of iron chelators on the accumulation of ATP5G was also studied.
As a treatment paradigm, iron-chelators were also added post-accumulation of lipofuscin. L1 and Dfx were added to ANCL iNs after 56 days of lipofuscin accumulation, and levels of ATP5G and lipofuscin were compared over the subsequent 3 weeks.

| Structure (SMILES) | SNAP-25 levels [1] | lipofuscin ELISA signal [2] | levels of lipofuscin (ELISA) [2] |
| --- | --- | --- | --- |
| Cc1c(O)c(=O)ccn1C [L1, 3-hydroxy-1,2-dimethyl-4(1H)-pyridone] | augmented | significant reduction | reduced to the levels observed in the prevention experiments |
| CC(=O)N(O)CCCCCNC(=O)CCC(=O)N(O)CCCCCNC(=O)CCC(=O)N(O)CCCCCN [Dfx, N′-[5-(Acetyl-hydroxy-amino)pentyl]-N-[5-[3-(5-aminopentyl-hydroxy-carbamoyl)propanoylamino]pentyl]-N-hydroxy-butane diamide] | augmented | significant reduction | reduced to the levels observed in the prevention experiments |
